Measured values published in patent publication US20090098044A1, “SOLID PARTICLES FROM CONTROLLED DESTABILISATION OF MICROEMULSIONS” (Australian Nuclear Science and Technology Organisation, priority 2004, published 2009).

Tests used:
Assay type in all cases: physicochemical
[1] = Decomposition of pure doxorubicin in PBS (pH 6.9/25° C.) at 37° C.; details: normal phosphate buffer
[2] = Solubility of the drug
[3] = Decomposition of doxorubicin at pH 7.4 versus pH<4
Description: The decomposition rate of doxorubicin at physiological pH (pH 7.4) versus its decomposition rate at pH<4 makes analysis of the system difficult.

doxorubicin disappears ([1]; in 2 weeks): about 74% | half-life ([1]; phosphate buffer (PBS), pH 6.9, exponential decomposition during first ten days, read-out: half decay (T1/2) of doxorubicin (converted)): ~108 h | solubility of doxorubicin in acetone ([2]; acetone): high solubility | solubility of doxorubicin in aqueous solutions ([2]; aqueous solutions, orange precipitate seen after day 9): limited solubility | stability of doxorubicin as a function of pH ([3]; pH<4 (pH ~3.4)): most stable at this pH
Compound: COc1cccc2c1C(=O)c1c(O)c3c(c(O)c1C2=O)C[C@@](O)(C(=O)CO)C[C@@H]3O[C@H]1C[C@H](N)[C@H](O)[C@H](C)O1 [doxorubicin]
decomposition of doxorubicin at pH 7.4 compared with pH<4 ([3]; known concentration of doxorubicin, FIG. 44): increased decomposition at physiological pH
